Laboratory results from patent US20240027479A1, “A Comprehensive Breath Test that Confirms Recent Use of Inhaled Cannabis within the Impairment Window” (RCU Labs, Inc., priority 2018, published 2024).
Where “and” joins values, the source holds several entries; their conditions need not be identical. Equal entries are not always repeated. Where two headings read alike, the source gives them in different places.

How the values were obtained:
[1] = Cannabinoids and Δ^9-THC metabolites in capillary blood (LC-HRMS); conditions: pre-smoking
From the text: The complex nature of cannabinoid pharmacokinetics and pharmacodynamics calls for a new approach for effectively determining recent use of cannabis within the impairment window. We sought to develop a multiple-parameter test based on pharmacological changes in Δ^9-THC and its metabolites in blood over time. This approach requires the collection of two samples separated by a known time interval, which is a critical difference compared to current blood testing methods that rely on the collection of a single sample. The two-sample strategy makes possible the detection of Δ^9-THC in its distribution phase where the half-life is very short [Moeller M R. et al., J Forensic Sci 37:969-83 (1992); Wall M E. et al., Clin Pharmacol Ther 34:352-63 (1983)], which occurs only within the first few hours after smoking, and for the evaluation of how Δ^9-THC metabolite levels in blood are changing with time relative to Δ^9-THC. A liquid chromatography high-resolution mass spectrometry (LC-HRMS) bioanalytical method for the quantification of cannabinoids in microsamples (50 μL) of whole blood was developed and validated for this purpose [DeGregorio M W. et al., J AOAC Int 103:725-35 (2020)].
A total of 92 subjects were included in clinical trials designed to evaluate the feasibility of the described method for determining recent cannabis use (blood-based study in 48 subjects) and recent cannabis use and impairment (breath- and blood-based study in 44 subjects). Each subject was given a single cannabis cigarette and instructed to smoke as much of it as possible within a 10-minute period. Cigarettes containing 500 mg of dried cannabis flower were prepared immediately before each smoking session. During the studies, subjects were given a variety of cannabis chemovars to smoke, with Δ^9-THC content ranging from a low of 8.5% to a high of 28.4%. A wide variety of chemovars was included to account for the variability in Δ^9-THC potencies available in numerous cannabis retail establishments in the various U.S. states where recreational and/or medicinal cannabis has been legalized. Capillary blood samples ([…] collected at various time points prior to smoking and up to 200 minutes after smoking, were obtained from a total of 92 subjects using a variety of methods including lancets and two types of automated blood collection devices. Exhaled breath samples were collected from a total of 44 subjects at various time points prior to smoking and up to 240 minutes post-smoking. Breath samples were collected using devices equipped with electrostatic polymer filters and that are designed to collect approximately 20 L of exhaled breath through normal breathing. The time required for breath sample collection was approximately 2-3 minutes. A total of 74 subjects were asked to self-assess their level of impairment before smoking and at each designated sampling time point after smoking based on a scale ranging from 0 (not impaired) to 10 (very impaired) as shown in FIG. 2. As a physical indicator of impairment, 44 subjects were evaluated for horizontal gaze nystagmus.
One of the first endpoints investigated during clinical development of the recent use test method was whether there is any relationship between blood Δ^9-THC levels and impairment. Prior to smoking, Δ^9-THC blood concentrations were evaluated in a group of 30 subjects before and up to 200 minutes after smoking a 500-mg cannabis cigarette and compared to a common legal limit (5 ng/mL) for establishing driver impairment due to cannabis.

[2] = Presence of cannabinoids in exhaled breath before and after smoking (LC-HRMS); type: in vivo, human
Method: (§1) The positive recent use test results outside of the three-hour impairment window based on blood sampling alone led to the incorporation of a second testing matrix, exhaled breath, to strengthen the results of the test method so that cannabis users who are within the impairment window after smoking can be more accurately identified. For this purpose, a total of 44 additional subjects were evaluated in a smoking study in which both exhaled breath and blood samples were collected and then analyzed by LC-HRMS for cannabinoids and Δ^9-THC metabolites. As with the 48-subject blood-based study, subjects were given a 500-mg cannabis cigarette to smoke, and breath and blood samples were collected at various time points before and after smoking.

[3] = Cannabinoid half-lives in exhaled breath, multi-point breath sampling; type: in vivo, human; conditions: for Cannabinoid Half-Lives (min) in breath, back-to-back sampling: individual subject; for half-life: human, exhaled breath, inhaled, 500 mg
Method: as §1
These included the presence of CBN, CBC, CBG, Δ^9-THCV, and CBGA, and short half-lives (<60 minutes) for Δ^9-THC, CBN, CBC, CBG, and Δ^9-THCV (see Table 5 below). […] Pre-smoking, half-lives were calculable for Δ^9-THC in only three subjects.
Evidence of recent cannabis use by inhalation through smoking or vaping dissipates rapidly in exhaled breath, and thus allowing 20 minutes between breath samplings, which was employed in the blood-based study and for most of the subjects in the blood and breath-based study, may result in the loss of valuable data. In the last nine subjects involved in the exhaled breath study, a back-to-back sample collection strategy was employed whereby two exhaled breath samples were collected in quick succession at 20 and 40 minutes post-smoking. Approximately two minutes elapsed between the collection of each sample. The very short half-lives observed for Δ^9-THC, CBN, and other cannabinoids (approximately five minutes or less) in exhaled breath would allow for rapid sampling (see Table 6 below).

[4] = Stability of target analytes in the breath collection device; type: physicochemical
From the text: In particular, CBN, CBG, and Δ^9-THCV all have a much greater incidence in breath during peak impairment (the first hour after smoking) compared to pre-smoking. […] Stability of the analytes within the breath collection devices was previously established (see Table 4 below).

[5] = 0-10 Minutes Post-Smoking, read-out: Average Half-Life (minutes ± SD) in breath
[6] = 0-20 Minutes Post-Smoking, read-out: Average Half-Life (minutes ± SD) in breath
[7] = 20 Minutes Post-Smoking, read-out: Cannabinoid Half-Lives (min) in breath, back-to-back sampling, Average
[8] = 40 Minutes Post-Smoking, read-out: Cannabinoid Half-Lives (min) in breath, back-to-back sampling, Average
[9] = Day 3, breath collection device
[10] = Day 7, breath collection device
[11] = Day 10, breath collection device
[12] = Day 14, breath collection device
[13] = Day 30, breath collection device

SMILES | detection in subjects' blood samples at baseline prior to smoking [1] | Presence in exhaled breath, Percent (%) Positivity ([2]; >60 minutes after smoking) | Presence in exhaled breath, positive/evaluable subjects ([2]; >60 minutes after smoking) | Presence in exhaled breath, Percent (%) Positivity ([2]; Baseline (Pre-smoking)) | Presence in exhaled breath, positive/evaluable subjects ([2]; Baseline (Pre-smoking)) | Presence in exhaled breath, Percent (%) Positivity ([2]; ≤60 minutes after smoking) | Presence in exhaled breath, positive/evaluable subjects ([2]; ≤60 minutes after smoking) | Analyte Stability (%) at Room Temperature (20-25° C.) [4, 9] [%] | Analyte Stability (%) at Room Temperature (20-25° C.) [4, 10] [%] | Analyte Stability (%) at Room Temperature (20-25° C.) [4, 11] [%] | Analyte Stability (%) at Room Temperature (20-25° C.) [4, 12] [%] | Analyte Stability (%) at Room Temperature (20-25° C.) [4, 13] [%] | further results
CCCCCc1cc(O)c2c(c1)OC(C)(C)C1CC(O)C(CO)=CC21 (stereo not drawn) [8β,11-dihydroxy-Δ^9-THC] | detected | – | – | – | – | – | – | – | – | – | – | – | –
CCCCCc1cc(O)c2c(c1)OC(C)(C)C1CCC(CO)=CC21 (stereo not shown) [11-OH-Δ^9-THC, 11-hydroxy-Δ^9-tetrahydrocannabinol] | detected | – | – | – | – | – | – | – | – | – | – | – | –
CCCCCc1cc(O)c2c(c1)OC(C)(CCC=C(C)C)C=C2 (stereo not shown) [CBC, cannabichromene] | detected | (0%) | 0/40 | (0%) | 0/34 | (97.5%) | 39/40 | 100.6 | 89.1 | 89.9 | 82.2 | 75.6 | Cannabinoid Half-Lives (min) in breath, back-to-back sampling ([3]; 20 Minutes Post-Smoking): 2.2 min and 2.0 min and 2.7 min and 1.3 min and 11.8 min and 1.0 min; Cannabinoid Half-Lives (min) in breath, back-to-back sampling ([3]; 40 Minutes Post-Smoking): 2.3 min and 3.5 min and 5.2 min; half-life [3, 5]: 3.9 ± 2.5 min; half-life [3, 6]: 3.8 ± 2.3 min; half-life [3, 7]: 3.3 min; half-life [3, 8]: 3.6 min
CCCCCc1cc(O)c(C/C=C(\C)CCC=C(C)C)c(O)c1 [CBG, cannabigerol] | detected | (2.5%) | 1/40 | (5.9%) | 2/34 | (92.5%) | 37/40 | 97.5 | 87.6 | 97.8 | 75.0 | 56.5 | Cannabinoid Half-Lives (min) in breath, back-to-back sampling ([3]; 20 Minutes Post-Smoking): 1.6 min and 1.3 min and 2.6 min and 2.1 min and 0.7 min; half-life [3, 5]: 3.6 ± 2.1 min; half-life [3, 6]: 3.7 ± 3.1 min; half-life [3, 7]: 1.7 min
CCCc1cc(O)c2c(c1)OC(C)(C)[C@@H]1CCC(C)=C[C@@H]21 [Δ^9-THCV, Δ^9-tetrahydrocannabivarin] | detected | (0%) | 0/40 | (0%) | 0/34 | (90.0%) | 36/40 | 79.7 | 68.1 | 69.8 | 56.5 | 47.1 | Average Half-Life (minutes ± SD) in breath ([3]; 0-10 Minutes Post-Smoking): 4.2 ± 3.9 min; Average Half-Life (minutes ± SD) in breath ([3]; 0-20 Minutes Post-Smoking): 2.9 ± 0.7 min
CCCCCc1cc(O)c2c(c1)OC(C)(C)[C@@H]1C[C@@H](O)C(C)=C[C@@H]21 [8β-hydroxy-Δ^9-THC] | detected | – | – | – | – | – | – | – | – | – | – | – | –
CCCCCc1cc(O)c2c(c1)OC(C)(C)[C@@H]1CCC(C(=O)O)=C[C@@H]21 [11-nor-9-carboxy-Δ^9-THC, 11-nor-9-carboxy-Δ^9-tetrahydrocannabinol] | detected | – | – | – | – | – | – | – | – | – | – | – | –
CCCCCc1cc(O)c2c(c1)OC(C)(C)c1ccc(C)cc1-2 [CBN, cannabinol] | detected | (10.0%) | 4/40 | (2.9%) | 1/34 | (92.5%) | 37/40 | 104.5 | 100.0 | 107.3 | 87.9 | 74.4 | Cannabinoid Half-Lives (min) in breath, back-to-back sampling ([3]; 20 Minutes Post-Smoking): 2.0 min and 2.3 min and 1.8 min and 6.4 min and 1.1 min; Cannabinoid Half-Lives (min) in breath, back-to-back sampling ([3]; 40 Minutes Post-Smoking): 2.9 min and 4.8 min and 10.7 min; half-lives observed in exhaled breath ([3]; approximate, summary statement): five; half-life ([3]; 20-60 Minutes Post-Smoking, read-out: Average Half-Life (minutes ± SD) in breath): 35.2 min; half-life [3, 7]: 2.7 min; half-life ([3]; 40-60 Minutes Post-Smoking, read-out: Average Half-Life (minutes ± SD) in breath): 12.8 min; half-life [3, 8]: 6.1 min
C=C(C)[C@@H]1CCC(C)=C[C@H]1c1c(O)cc(CCCCC)c(C(=O)O)c1O [CBDA, cannabidiolic acid] | detected | – | – | – | – | – | – | – | – | – | – | – | –
C=C(C)[C@@H]1CCC(C)=C[C@H]1c1c(O)cc(CCCCC)cc1O [CBD, cannabidiol] | detected | – | – | – | – | – | – | – | – | – | – | – | –
CCCCCc1cc(O)c(C/C=C(\C)CCC=C(C)C)c(O)c1C(=O)O [CBGA, cannabigerolic acid] | detected | (10.0%) | 4/40 | (11.8%) | 4/34 | (45.0%) | 18/40 | 99.4 | 110.9 | 110.4 | – | 114.3 | –
CCCCCc1cc2c(c(O)c1C(=O)O)[C@@H]1C=C(C)CC[C@H]1C(C)(C)O2 [Δ^9-THCA, Δ^9-tetrahydrocannabinolic acid A] | detected | – | – | – | – | – | – | – | – | – | – | – | –
